Biological target: high molecular oligomer Aβ (Aβ1-42) (Homo sapiens, UniProt P05067)
Assay: Influence of test compound on Aβ oligomer formation, measured by BAN50a / HRP-labeled BAN50a ELISA
Type: biochemical
Conditions: Curcumin with various concentrations added to Aβ42 solutions; incubated at 4° C. for a whole day and night; ELISA of Example 1
Experimental: ELISA using BAN50a and HRP labeled BAN50a (quantification of oligomer Aβ) was performed by the following steps.
(1) BAN50a antibody was dissolved in coating buffer A to a concentration of 10 μg/ml (75 μl/well), added to an EIA96 well plate (high maximum binding clear plate, Greiner), and incubated in a refrigerating room (about 4° C.) for a whole day and night. (2) After washing 3 times with PBS (calcium, magnesium-free; hereinafter sometimes to be abbreviated as PBS(−)), blocking buffer B was added to 100 μL/well and the plate was stored. (3) On the day of experiment, blocking buffer B was discarded and the plate was washed twice with PBS(−), and 25 μl of buffer C was added. […] (5) The sample was incubated in a refrigerating room (about 4° C.) for a whole day and night. (6) The plate was washed 4 times with PBS(−). […] (11) Thereafter, 1 M phosphoric acid solution (75 μl/well) was added to the reacted substrate solution to terminate the reaction, and OD450 was measured by a multi-label counter (PerkinElmer). […]
(3) The tube was incubated at 4° C. for a whole day and night. (4) The reaction mixture was diluted 100-fold with buffer C (mentioned above), and measured by the aforementioned ELISA. (5) The inhibitory rate was calculated with that of the vehicle group as 100%. […]

high molecular oligomer Aβ (Aβ1-42), sequence (P05067 672-713): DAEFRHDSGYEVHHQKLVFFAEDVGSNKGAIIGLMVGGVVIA

signal of oligomer Aβ (inhibition of formation of high molecular oligomer Aβ): specifically decreased
Compound: COc1cc(/C=C/C(=O)CC(=O)/C=C/c2ccc(O)c(OC)c2)ccc1O [curcumin]
